The source of these data is ChEMBL document CHEMBL3739376, “Synthesis and biological evaluation of N-(4-phenylthiazol-2-yl)cinnamamide derivatives as novel potential anti-tumor agents” (Medchemcomm, 2015).

The term IC50 denotes the concentration that inhibits the measured activity by half.

The test system of assay [1] is K562. Briefly: Cytotoxicity against human K562 cells assessed as inhibition of cell proliferation after 96 hrs by MTT assay. It is filed as functional, cell-based. The settings on record: K562, 96 h. A general note: Tetrazolium assays rely on reduction of a dye to a coloured formazan, in cell work by metabolically active cells.
Assay [2] concerns Jurkat. Briefly: Cytotoxicity against human Jurkat cells assessed as inhibition of cell proliferation after 96 hrs by MTT assay. It is filed as functional, cell-based.
Assay [3] deals with MDA-MB-468. Briefly: Cytotoxicity against human MDA-MB-468 cells assessed as inhibition of cell proliferation after 96 hrs by MTT assay. It is filed as functional, cell-based. The settings on record: MDA-MB-468, 96 h.
In assay [4] the test system is HEK293. Briefly: Cytotoxicity against HEK293 cells assessed as inhibition of cell proliferation after 96 hrs by MTT assay. It is filed as cell-based. The conditions noted are these: Homo sapiens, HEK293, 96 h.
Assay [5] can be described thus: Cytotoxicity against human MV411 cells assessed as inhibition of cell proliferation after 96 hrs by MTT assay. It is filed as functional, cell-based. The conditions noted are these: MV4-11, 96 h.
Assay [6] concerns Vero. Briefly: Cytotoxicity against african green monkey Vero cells assessed as inhibition of cell proliferation after 96 hrs by MTT assay. The settings on record: Chlorocebus sabaeus. It is filed as cell-based.
The nature of assay [7]: Cytotoxicity against human LO2 cells assessed as inhibition of cell proliferation after 96 hrs by MTT assay. The conditions noted are these: L02, 96 h. It is filed as cell-based.
Assay [8] can be described thus: Cytotoxicity against human OCI-LY1 cells assessed as inhibition of cell proliferation after 96 hrs by MTT assay. It is filed as functional, cell-based. The settings on record: OCI-Ly1, 96 h.
Assay [9] in a line: Cytotoxicity against human Bel7402 cells assessed as inhibition of cell proliferation after 96 hrs by MTT assay. It is filed as functional, cell-based. The conditions noted are these: Bel-7402, 96 h.
Assay [10] concerns A549. Briefly: Cytotoxicity against human A549 cells assessed as inhibition of cell proliferation after 96 hrs by MTT assay. It is filed as functional, cell-based. The conditions noted are these: A549, 96 h.
The subject of assay [11] is MCF7. The experiment in a line: Cytotoxicity against human MCF7 cells assessed as inhibition of cell proliferation after 96 hrs by MTT assay. The conditions noted are these: MCF7, 96 h. It is filed as functional, cell-based.
The subject of assay [12] is Bel-7402. The experiment in a line: Induction of apoptosis in human Bel7402 cells after 48 hrs by propidium iodide staining-based fluorescence microscopic analysis. It is filed as functional, cell-based.
In assay [13] the test system is A549. The experiment in a line: Induction of apoptosis in human A549 cells at 3.3 uM after 48 hrs by propidium iodide staining-based fluorescence microscopic analysis. It is filed as functional.
Assay [14] concerns Bel-7402. Briefly: Induction of apoptosis in human Bel7402 cells at 10 uM after 48 hrs by propidium iodide staining-based fluorescence microscopic analysis. It is filed as functional.
Assay [15] has as its system Bel-7402. The experiment in a line: Induction of apoptosis in human Bel7402 cells assessed as condensed nuclei at 0.37 to 10 uM after 48 hrs by […] staining-based fluorescence microscopic analysis. It is filed as functional, cell-based.
The subject of assay [16] is Jurkat. Briefly: Induction of apoptosis in human Jurkat cells at 3.3 uM after 48 hrs by propidium iodide staining-based fluorescence microscopic analysis. It is filed as functional.
The subject of assay [17] is Bel-7402. Briefly: Induction of apoptosis in human Bel7402 cells at 1.1 uM after 48 hrs by propidium iodide staining-based fluorescence microscopic analysis. It is filed as functional.
For assay [18], the system named is K562. The experiment in a line: Induction of apoptosis in human K562 cells at 3.3 uM after 48 hrs by propidium iodide staining-based fluorescence microscopic analysis. It is filed as functional.
In assay [19] the test system is Bel-7402. Briefly: Induction of apoptosis in human Bel7402 cells at 3.3 uM after 48 hrs by propidium iodide staining-based fluorescence microscopic analysis. It is filed as functional.
Assay [20] has as its system Bel-7402. The experiment in a line: Induction of apoptosis in human Bel7402 cells at 0.37 uM after 48 hrs by propidium iodide staining-based fluorescence microscopic analysis. It is filed as functional.

The source made the active and inactive calls. The calls are words filed in the database; no cut-off is given here. Bounds are passed on as bounds.

As to `Cc1cc(C)c(-c2csc(NC(=O)/C=C/c3ccc(Br)cc3)n2)c(C)c1`, the IC50 in [1] is 4.59 µM.

As for `Cc1cc(C)c(-c2csc(NC(=O)/C=C/c3ccncc3)n2)c(C)c1`, the IC50 in assay [1] was 9.39 µM.

For `Cc1cc(C)c(-c2csc(NC(=O)/C=C/c3ccc(Cl)c(C(F)(F)F)c3)n2)c(C)c1`, in [1], the IC50 amounted to 3.06 µM.

Turning to `Cc1cc(C)c(-c2csc(NC(=O)/C=C/c3ccc(N4CCOCC4)cc3)n2)c(C)c1`, the half-inhibitory concentration (IC50) is 9.05 µM in [2]; over 30 µM in assay [3]; over 90 µM in [4]; 6.42 µM in [5]; over 90 µM in [6]; over 90 µM in [7]. Also, the IC50 amounted to 11.7 µM in assay [8]; 10.6 µM in assay [9]; 0.61 µM in [1]; 4.29 µM in [10]; 20 µM in [11].

Take `O=C(/C=C/c1ccc(N2CCOCC2)cc1)Nc1nc(-c2ccc(F)cc2)cs1`: the IC50 in assay [1] is 7.3 µM.

For `Cc1cc(C)c(-c2csc(NC(=O)/C=C/c3ccc(C(F)(F)F)cc3)n2)c(C)c1`, the concentration for half-maximal inhibition (IC50) in assay [2] was 1.15 µM; in [3] it was 1.53 µM; in [4] it was over 90 µM; in assay [5], 3.65 µM; in assay [6] it was over 90 µM; in assay [7], over 90 µM. In addition, the IC50 was 3.69 µM in [8]; 34.1 µM in assay [9]; 0.48 µM in [1]; 0.2 µM in assay [10]; over 30 µM in assay [11].

As to `Cc1cccc(-c2csc(NC(=O)/C=C/c3ccc(N4CCOCC4)cc3)n2)c1`, in [1], the IC50 is 7.51 µM.

Regarding `O=C(/C=C/c1ccc(N2CCOCC2)cc1)Nc1nc(-c2cccc(F)c2)cs1`, the IC50 in assay [1] is 5.73 µM.

With `Cc1ccc(-c2csc(NC(=O)/C=C/c3ccc(N4CCOCC4)cc3)n2)c(C)c1`, in assay [1], the IC50 is 5.38 µM.

As to `O=C(/C=C/c1ccc(N2CCOCC2)cc1)Nc1nc(-c2c(F)cc(F)cc2F)cs1`, the half-inhibitory concentration (IC50) in assay [1] is 5.15 µM.

As for `COc1cc(/C=C/C(=O)Nc2nc(-c3c(C)cc(C)cc3C)cs2)cc(OC)c1OC`, in [1], the IC50 was found to be 11.8 µM.

On to `Cc1ccc(/C=C/C(=O)Nc2nc(-c3c(C)cc(C)cc3C)cs2)cc1`, for which the half-inhibitory concentration (IC50) in assay [1] was determined as 7.88 µM.

In the case of `Cc1cc(C)c(-c2csc(NC(=O)/C=C/c3ccc(C(C)(C)C)cc3)n2)c(C)c1`, the IC50 was 0.035 µM in assay [2]; over 30 µM in assay [3]; over 90 µM in assay [4]; 0.11 µM in assay [5]; over 90 µM in assay [6]; over 90 µM in assay [7]. In addition, the IC50 is 1.54 µM in [8]; 0.74 µM in assay [9]; 0.18 µM in assay [1]; 0.27 µM in assay [10]; over 30 µM in assay [11]. Besides, the Activity result was “Dose-dependent effect” in [12]; 23.13% in [13]; 61.35% in assay [14]; 14.64% in [16]; 25.37% in assay [17]; 21.04% in [18]. For the same molecule, the Activity was found to be 48.15% in [19] and 5.37% in [20]. Moreover, in assay [15], the result was Active.

As to `Cc1cc(C)cc(-c2csc(NC(=O)/C=C/c3ccc(N4CCOCC4)cc3)n2)c1`, the 50% inhibitory concentration (IC50) in assay [1] was over 90 µM.

Regarding `COc1ccc(-c2csc(NC(=O)/C=C/c3ccc(N4CCOCC4)cc3)n2)cc1`, the half-maximal inhibitory concentration (IC50) in assay [1] was 14.6 µM.

Turning to `Cc1cc(C)c(-c2csc(NC(=O)/C=C/c3ccccc3)n2)c(C)c1`, in [1], the half-inhibitory concentration (IC50) came to 40.4 µM.

Take `O=C(/C=C/c1ccc(N2CCOCC2)cc1)Nc1nc(-c2ccccc2)cs1`: the 50% inhibitory concentration (IC50) in assay [1] was determined as 12.6 µM.

In the case of `Cc1cc(C)c(-c2csc(NC(=O)/C=C/c3ccc(N4CCCCC4)cc3)n2)c(C)c1`, in assay [1], the concentration for half-maximal inhibition (IC50) worked out at 4.06 µM.

Take `COc1cccc(-c2csc(NC(=O)/C=C/c3ccc(N4CCOCC4)cc3)n2)c1`: in assay [1], the IC50 stood at 25.2 µM.

In the case of `O=C(/C=C/c1ccc(N2CCOCC2)cc1)Nc1nc(-c2ccccc2F)cs1`, in [1], the half-inhibitory concentration (IC50) was 4.18 µM.

Regarding `CC(=O)O[C@H]1C(=O)[C@@]2(C)[C@H]([C@H](OC(=O)c3ccccc3)[C@]3(O)C[C@H](OC(=O)[C@H](O)[C@@H](NC(=O)c4ccccc4)c4ccccc4)C(C)=C1C3(C)C)[C@]1(OC(C)=O)CO[C@@H]1C[C@@H]2O` [PACLITAXEL], the IC50 is 0.69 µM in assay [2]; 0.31 µM in assay [3]; 0.75 µM in assay [5]; 0.18 µM in [8]; over 10 µM in assay [9]; 1.26 µM in [1]. For the same molecule, the IC50 in [10] worked out at 0.74 µM.

On to `Cc1ccccc1-c1csc(NC(=O)/C=C/c2ccc(N3CCOCC3)cc2)n1`, for which the IC50 in assay [1] came to 3.74 µM.

Regarding `COc1ccccc1-c1csc(NC(=O)/C=C/c2ccc(N3CCOCC3)cc2)n1`, in assay [1], the half-inhibitory concentration (IC50) is over 90 µM.

`Cc1cc(C)c(-c2csc(NC(=O)/C=C/c3ccc(C4CC4)cc3)n2)c(C)c1`: the IC50 was 1.24 µM in assay [2]; 15.7 µM in [3]; over 90 µM in assay [4]; 1.41 µM in assay [5]; over 90 µM in assay [6]; over 90 µM in assay [7]. In addition, the half-inhibitory concentration (IC50) in assay [8] came to 1.63 µM; in assay [9] it was 6.58 µM; in [1], 0.38 µM; in assay [10], 1.17 µM; in assay [11], 7.76 µM.

Turning to `Cc1cc(C)c(-c2csc(NC(=O)/C=C/c3ccc(F)cc3)n2)c(C)c1`, the concentration for half-maximal inhibition (IC50) in assay [1] worked out at 14 µM.

Regarding `COc1ccc(/C=C/C(=O)Nc2nc(-c3c(C)cc(C)cc3C)cs2)cc1`, in assay [1], the half-inhibitory concentration (IC50) was found to be 4.16 µM.

In the case of `Cc1ccc(-c2csc(NC(=O)/C=C/c3ccc(N4CCOCC4)cc3)n2)cc1`, the concentration for half-maximal inhibition (IC50) in assay [1] is over 90 µM.

On to `COc1cc(C)c(-c2csc(NC(=O)/C=C/c3ccc(N4CCOCC4)cc3)n2)c(C)c1`, for which the IC50 in assay [2] is 1.24 µM; in assay [3], over 30 µM; in assay [4] it was over 90 µM; in assay [5], 2.73 µM; in assay [6], over 90 µM; in assay [7] it was over 90 µM. In addition, the concentration for half-maximal inhibition (IC50) was over 30 µM in [8]; 9.65 µM in assay [9]; 1 µM in assay [1]; 1.56 µM in assay [10]; 1.45 µM in assay [11].

Take `CCOc1cc(C)c(-c2csc(NC(=O)/C=C/c3ccc(N4CCOCC4)cc3)n2)c(C)c1`: in assay [1], the IC50 was determined as 2.09 µM.

Regarding `Cc1cc(C)c(-c2csc(NC(=O)/C=C/c3ccc([N+](=O)[O-])cc3)n2)c(C)c1`, in [1], the IC50 was 32.2 µM.

As for `COCCOc1ccc(/C=C/C(=O)Nc2nc(-c3c(C)cc(C)cc3C)cs2)cc1`, the IC50 in assay [1] stood at 1.49 µM.

As for `CCOc1ccc(/C=C/C(=O)Nc2nc(-c3c(C)cc(C)cc3C)cs2)cc1`, the half-inhibitory concentration (IC50) in [1] amounted to 2.48 µM.

As for `COc1cc(F)c(-c2csc(NC(=O)/C=C/c3ccc(N4CCOCC4)cc3)n2)c(F)c1`, the IC50 in assay [1] came to 30.3 µM.
